Where two headings read alike, the source gives them in different places.
Tests used:
RPE-Neo or RPE-MYC cells = assay: MTT assay of cellular proliferation (proliferative arrest); type: cell-based; details: read-out: Min. Effective conc. for Proliferative arrest (>50%)
[1] = system: RPE-Neo or RPE-MYC or RPE-MYC expressing an EGFP-Histone 2B fusion protein; assay: Phenotypic screening assay: arrest in mitosis, change in DNA content (polyploidy), cell death; type: cell-based; details: 20 nM to 20 μM, 24, 48 or 72 hours
Summary of the method: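 RPE-Neo, RPE-MYC or RPE-MYC EGFP-H2B cells plated 18-24 h before treatment with compounds at 20 nM to 20 μM. Mitotic arrest or DNA-content change scored by automated imaging at 24, 48 or 72 h; proliferation by MTT. Values binned into A–D ranges.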

[2] = Tumor growth inhibition, CT26 allograft in BAL B/c mice; type: in vivo, mouse tumor cell line in BAL B/c mice; details: oral, 20 days, 30% PEG300
Protocol: (§1) Six- to seven-week-old female BAL B/c nude mice were used in the human cancer cell line NCI-H460, which was derived from a lung cancer patient. Six- to seven-week-old female BAL B/c mice were used in the mouse […] cell line CT26 allograft models. 100 μL cell suspensions containing one million cells with […] (Corning, Cat. No. 354254) were implanted subcutaneously into the right flank of mice. Mice were monitored daily for well-being and weighed twice weekly. Caliper measurements of tumor sizes began when tumors became visible. Tumor volume (TV) was calculated by measuring two perpendicular diameters using the following formula: (L×W2)/2 in which L and W refer to the length and width of a tumor, respectively. When tumors reached an average size of 100 mm3, mice were first ranked according to tumor size and divided into “n” cohorts with X mice in each cohort. Each cohort was then sorted into 1 to X groups according to the random numbers size order generated by the RAND 0)function in Excel. In this way, the mice were randomized into X groups (n=4-6). Then the mice were orally administrated with vehicle (30% PEG 300) or indicated compounds at a dose volume of 5 mL/kg in a double-blinded manner. Oral administration was chosen because this is the intended route of use in the clinic. In all cases, no tumor measurement data or animals were excluded from the data analysis. Percentage of tumor growth inhibition (TGI) was calculated using the following formula: % TGI=average 100×[1−(final TV−initial TV of treatment group)/(final TV−initial TV of control group)]. As set forth in table 3 below, an values of greater than or equal to 35% and less than or equal to 45% […] is marked “C”; a value greater than 45% and less than or equal to 55% is marked “B”; a value greater than 55% and less than or equal to 70% is marked “A”; and […]

[3] = system: human cancer cell line NCI-H460; assay: Tumor growth inhibition, NCI-H460 tumors in BAL B/c nude mice; type: in vivo, human tumor cell line in BAL B/c nude mice; details: oral, 8 mg/kg, 4 days-on, 3 days-off, 20 days, 30% PEG300
Protocol: as §1

[4] = read-out: Min. Effective conc. for Along with Cell Death
[5] = ≥5%, read-out: Min. Effective conc. for Mitotic Arrest (≥5%)
[6] = ≥5%, read-out: Min. Effective conc. for Polyploidy (≥5%)

Compound | minimal effective concentration (RPE-Neo or RPE-MYC cells) [µM] | minimal effective concentration [1, 4] [µM] | minimal effective concentration [1, 5] [µM] | minimal effective concentration [1, 6] [µM] | TGI % ([2]; 8 mg/kg, 3 days-on, 4 days-off) | TGI % [3] | TGI % ([2]; 8 mg/kg, 4 days-on, 3 days-off) | TGI % ([2]; 20 mg/kg, 4 days-on, 3 days-off)
COc1ccc(CN2C(=O)CC(c3ncc(C)o3)=Cc3ccc(-c4cnn(CC(C)(C)O)c4)cc32)cc1 [Compound 37, 8-(1-(2-hydroxy-2-methylpropyl)-1H-pyrazol-4-yl)-1-(4-methoxybenzyl)-4-(5-methyloxazol-2-yl)-1,3-dihydro-2H-benzo[b]azepin-2-one] | 0.001 to 1 | 0.001 to 1 | 0.001 to 1 | 0.001 to 1 | B (greater than 45% and less than or equal to 55%) | A (greater than 55% and less than or equal to 70%) |  | 
COc1ccc(CN2C(=O)CC(c3nnc(C4CC4)o3)=Cc3ccc(-c4cnn(CC(C)(C)O)c4)cc32)cc1 [Compound 94, 4-(5-Cyclopropyl-1,3,4-oxadiazol-2-yl)-8-(1-(2-hydroxy-2-methylpropyl)-1H-pyrazol-4-yl)-1-(4-methoxybenzyl)-1,3-dihydro-2H-benzo[b]azepin-2-one] | 0.001 to 1 | 0.001 to 1 | 0.001 to 1 | 0.001 to 1 |  |  | B (greater than 45% and less than or equal to 55%) | 
COc1ccc(CN2C(=O)CC(c3cnco3)=Cc3ccc(-c4cnn(CC(C)(C)O)c4)cc32)cc1 [Compound 96, 8-(1-(2-Hydroxy-2-methylpropyl)-1H-pyrazol-4-yl)-1-(4-methoxybenzyl)-4-(oxazol-5-yl)-1,3-dihydro-2H-benzo[b]azepin-2-one] | 0.001 to 1 | 0.001 to 1 | 0.001 to 1 | 0.001 to 1 |  |  |  | A (greater than 55% and less than or equal to 70%)
